Key:
Assay type in all cases: cell-based
human TLR7 = target: T1, human TLR7 (Homo sapiens, UniProt Q9NYK1); experiment: TLR7 inhibition reporter assay (HEK-Blue, SEAP); conditions: HEK-Blue cells overexpressing human TLR7, gardiquimod 7.5 μM, 22 hour incubation
T1 construct: host or cells: HEK-Blue cells
T1 sequence (Q9NYK1 27-1049): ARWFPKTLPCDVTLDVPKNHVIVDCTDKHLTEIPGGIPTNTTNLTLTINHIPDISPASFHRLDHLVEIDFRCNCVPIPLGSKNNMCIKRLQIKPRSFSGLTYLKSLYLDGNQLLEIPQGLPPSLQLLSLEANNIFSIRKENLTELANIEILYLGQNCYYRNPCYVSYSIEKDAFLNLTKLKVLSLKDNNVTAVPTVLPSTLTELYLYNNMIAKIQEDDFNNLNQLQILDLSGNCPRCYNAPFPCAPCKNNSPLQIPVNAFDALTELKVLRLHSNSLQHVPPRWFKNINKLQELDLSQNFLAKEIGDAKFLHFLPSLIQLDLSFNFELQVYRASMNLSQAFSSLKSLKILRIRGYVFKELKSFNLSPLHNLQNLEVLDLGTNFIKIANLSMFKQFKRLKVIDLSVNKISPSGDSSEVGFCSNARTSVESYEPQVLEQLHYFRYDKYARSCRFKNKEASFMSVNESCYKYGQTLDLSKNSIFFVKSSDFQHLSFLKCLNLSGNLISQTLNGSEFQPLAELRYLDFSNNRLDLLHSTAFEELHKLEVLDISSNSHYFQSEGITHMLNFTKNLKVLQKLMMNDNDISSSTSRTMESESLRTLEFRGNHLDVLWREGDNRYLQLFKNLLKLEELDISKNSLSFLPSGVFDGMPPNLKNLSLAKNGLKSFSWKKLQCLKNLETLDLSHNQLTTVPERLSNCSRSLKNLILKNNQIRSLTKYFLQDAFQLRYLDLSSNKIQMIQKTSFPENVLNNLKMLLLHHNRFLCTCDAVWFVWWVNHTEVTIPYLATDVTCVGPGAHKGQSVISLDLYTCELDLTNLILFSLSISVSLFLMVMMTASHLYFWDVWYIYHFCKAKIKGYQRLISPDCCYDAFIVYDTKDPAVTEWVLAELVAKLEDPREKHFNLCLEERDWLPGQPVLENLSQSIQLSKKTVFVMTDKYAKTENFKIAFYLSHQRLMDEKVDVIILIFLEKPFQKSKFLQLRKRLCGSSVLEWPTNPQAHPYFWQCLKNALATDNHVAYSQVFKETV
Protocol: (§1) TLR7/8/9 Inhibition Reporter Assays
(§2) HEK-Blue™-cells (Invivogen) overexpressing human TLR7, TLR8 or TLR9 receptors were used for screening inhibitors of these receptors using an inducible SEAP (secreted embryonic alkaline phosphatase) reporter gene under the control of the IFN-β minimal promoter fused to five NF-κB and AP-1-binding sites. Briefly, cells are seeded into Greiner 384 well plates (15000 cells per well for TLR7, 20,000 for TLR8 and 25,000 for TLR9) and then treated with test compounds in DMSO to yield a final dose response concentration range of 0.05 nM-50 μM. After a 30 minute compound pre-treatment at room temperature, the cells are then stimulated with a TLR7 ligand (gardiquimod at a final concentration of 7.5 μM), TLR8 ligand (R848 at a final concentration of 15.9 μM) or TLR9 ligand (ODN2006 at a final concentration of 5 nM) to activate NF-κB and AP-1 which induce the production of SEAP. After a 22 hour incubation at 37° C., 5% CO2, SEAP levels are determined with the addition of HEK-Blue™ Detection reagent (Invivogen), a cell culture medium that allows for detection of SEAP, according to manufacturer's specifications. The percent inhibition is determined as the % reduction in the HEK-Blue signal present in wells treated with agonist plus DMSO alone compared to wells treated with a known inhibitor.

human TLR8 = target: T2, human TLR8 (Homo sapiens, UniProt Q9NR97); experiment: TLR8 inhibition reporter assay (HEK-Blue, SEAP); conditions: HEK-Blue cells overexpressing human TLR8, R848 15.9 μM, 22 hour incubation
T2 construct: host or cells: HEK-Blue cells
T2 sequence (Q9NR97 27-1041): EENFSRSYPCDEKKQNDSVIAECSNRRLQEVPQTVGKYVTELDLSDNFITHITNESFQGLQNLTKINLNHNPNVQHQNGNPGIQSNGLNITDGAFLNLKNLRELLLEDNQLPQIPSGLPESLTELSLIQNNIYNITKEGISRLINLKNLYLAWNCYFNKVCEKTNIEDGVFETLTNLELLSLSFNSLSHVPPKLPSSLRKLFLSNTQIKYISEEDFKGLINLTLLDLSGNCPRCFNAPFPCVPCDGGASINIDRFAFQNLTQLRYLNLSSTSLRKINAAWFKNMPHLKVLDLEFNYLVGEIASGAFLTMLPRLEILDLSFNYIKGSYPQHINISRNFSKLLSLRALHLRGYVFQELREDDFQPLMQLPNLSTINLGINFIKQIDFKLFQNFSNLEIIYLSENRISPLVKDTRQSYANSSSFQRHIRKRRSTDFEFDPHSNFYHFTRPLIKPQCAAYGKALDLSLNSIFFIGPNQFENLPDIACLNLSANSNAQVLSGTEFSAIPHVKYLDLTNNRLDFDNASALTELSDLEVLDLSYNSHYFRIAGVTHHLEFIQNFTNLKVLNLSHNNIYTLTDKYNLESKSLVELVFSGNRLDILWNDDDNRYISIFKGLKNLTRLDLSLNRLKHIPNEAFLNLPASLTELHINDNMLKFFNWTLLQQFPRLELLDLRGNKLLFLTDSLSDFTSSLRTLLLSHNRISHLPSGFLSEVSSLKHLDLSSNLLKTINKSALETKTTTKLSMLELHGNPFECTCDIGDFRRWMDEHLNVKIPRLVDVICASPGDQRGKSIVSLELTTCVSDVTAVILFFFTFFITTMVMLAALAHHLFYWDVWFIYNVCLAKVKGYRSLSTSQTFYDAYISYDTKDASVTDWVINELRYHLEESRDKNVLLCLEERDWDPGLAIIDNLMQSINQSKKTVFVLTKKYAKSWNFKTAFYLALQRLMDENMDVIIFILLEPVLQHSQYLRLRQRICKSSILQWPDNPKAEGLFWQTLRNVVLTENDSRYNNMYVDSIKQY
Protocol: as §1, §2

human TLR9 = target: T3, human TLR9 (Homo sapiens, UniProt Q9NR96); experiment: TLR9 inhibition reporter assay (HEK-Blue, SEAP); conditions: HEK-Blue cells overexpressing human TLR9, ODN2006 5 nM, 22 hour incubation
T3 construct: host or cells: HEK-Blue cells
T3 sequence (Q9NR96 26-1032): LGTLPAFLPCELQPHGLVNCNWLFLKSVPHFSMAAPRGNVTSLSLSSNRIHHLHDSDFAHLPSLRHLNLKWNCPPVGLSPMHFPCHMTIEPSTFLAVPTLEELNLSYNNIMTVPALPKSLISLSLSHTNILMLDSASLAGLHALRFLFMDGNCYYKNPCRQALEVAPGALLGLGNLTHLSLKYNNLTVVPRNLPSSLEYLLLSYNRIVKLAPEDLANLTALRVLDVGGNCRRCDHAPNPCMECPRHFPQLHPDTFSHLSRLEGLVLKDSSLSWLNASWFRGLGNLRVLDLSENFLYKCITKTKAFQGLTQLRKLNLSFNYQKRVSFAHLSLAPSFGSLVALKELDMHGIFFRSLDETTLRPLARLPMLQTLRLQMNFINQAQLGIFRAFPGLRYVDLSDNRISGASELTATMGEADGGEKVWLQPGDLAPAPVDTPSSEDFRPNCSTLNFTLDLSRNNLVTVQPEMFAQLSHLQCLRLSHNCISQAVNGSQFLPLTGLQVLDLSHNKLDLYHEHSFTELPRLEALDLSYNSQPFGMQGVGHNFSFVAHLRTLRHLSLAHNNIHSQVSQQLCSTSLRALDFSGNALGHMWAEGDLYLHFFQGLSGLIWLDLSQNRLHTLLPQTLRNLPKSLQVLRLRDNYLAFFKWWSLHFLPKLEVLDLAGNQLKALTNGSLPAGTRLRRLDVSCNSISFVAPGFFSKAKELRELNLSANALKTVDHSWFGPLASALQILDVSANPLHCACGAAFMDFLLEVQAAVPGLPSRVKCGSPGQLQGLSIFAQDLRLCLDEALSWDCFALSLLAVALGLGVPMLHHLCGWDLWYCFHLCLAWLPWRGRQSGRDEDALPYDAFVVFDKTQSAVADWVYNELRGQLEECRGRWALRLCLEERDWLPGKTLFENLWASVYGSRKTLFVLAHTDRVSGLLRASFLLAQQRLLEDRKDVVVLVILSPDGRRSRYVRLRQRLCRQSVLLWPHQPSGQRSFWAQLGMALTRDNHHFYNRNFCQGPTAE
Protocol: as §1, §2

| SMILES | IC50 (human TLR7) [nM] | IC50 (human TLR8) [nM] | IC50 (human TLR9) [nM] |
| --- | --- | --- | --- |
| Cc1cc(-c2[nH]c3ccc(C4CCN(CCCC(F)(F)F)CC4)cc3c2C(C)C)c(C)n2cnnc12 [Example 41, 6-(3-isopropyl-5-(1-(4,4,4-trifluorobutyl)piperidin-4-yl)-1H-indol-2-yl)-5,8-dimethyl-[1,2,4]triazolo[4,3-a]pyridine] | 25.5 | 3.3 | 2850 |
| Cc1cc(-c2[nH]c3ccc(C4CCN(CCO)CC4)cc3c2C(C)C)cn2cnnc12 [Example 28, 2-(4-(3-isopropyl-2-(8-methyl-[1,2,4]triazolo[4,3-a]pyridin-6-yl)-1H-indol-5-yl)piperidin-1-yl) ethan-1-ol] | 0.4 | 3.4 | 454 |
| COCCN1CCC(c2ccc3[nH]c(-c4cc(C)c5nncn5c4)c(C(C)C)c3c2)CC1 [Example 27, 6-(3-isopropyl-5-(1-(2-methoxyethyl)piperidin-4-yl)-1H-indol-2-yl)-8-methyl-[1,2,4]triazolo[4,3-a]pyridine] | 0.9 | 3.4 | 3500 |
| Cc1c(-c2[nH]c3ccc(C4CCN(CC(=O)N(C)C)CC4)cc3c2C(C)C)ccc2nncn12 [Example 25, 2-(4-(3-isopropyl-2-(5-methyl-[1,2,4]triazolo[4,3-a]pyridin-6-yl)-1H-indol-5-yl)piperidin-1-yl)-N,N-dimethylacetamide] | 49.5 | 28.5 | 3320 |
| CC(C)c1c(-c2ccc3nncn3c2)[nH]c2ccc(C3CCN(C(=O)CN(C)C)CC3)cc12 [Example 105, 1-(4-(2-([1,2,4]triazolo[4,3-a]pyridin-6-yl)-3-isopropyl-1H-indol-5-yl)piperidin-1-yl)-2-(dimethylamino)ethan-1-one] | 5.9 | 134 | 188 |
| Cc1cc(-c2[nH]c3ccc(C4CCN(CC(C)(C)O)CC4)cc3c2C(C)C)c(C)n2cnnc12 [Example 59, 1-(4-(2-(5,8-dimethyl-[1,2,4]triazolo[4,3-a]pyridin-6-yl)-3-isopropyl-1H-indol-5-yl)piperidin-1-yl)-2-methylpropan-2-ol] | 81.7 | 3.1 | 3430 |
| Cc1c(-c2[nH]c3ccc(C4CCN(CC(=O)N(C)C)CC4)cc3c2C(C)C)cn2cnnc2c1C [Example 39, 2-(4-(2-(7,8-dimethyl-[1,2,4]triazolo [4,3-a]pyridin-6-yl)-3-isopropyl-1H-indol-5-yl)piperidin-1-yl)-N,N-dimethylacetamide] | 1.9 | 9.5 | 4240 |
| Cc1c(-c2[nH]c3ccc(C4CCN(C5CCOC(C)(C)C5)CC4)cc3c2C(C)C)cn2cnnc2c1C (stereo not drawn) [Example 85, 6-(5-(1-(2,2-dimethyltetrahydro-2H-pyran-4-yl)piperidin-4-yl)-3-isopropyl-1H-indol-2-yl)-7,8-dimethyl-[1,2,4]triazolo[4,3-a]pyridine] | 2.5 | 6.7 | 1990 |
| Cc1c(-c2[nH]c3ccc(C4CCN(CCCC(F)(F)F)CC4)cc3c2C(C)C)cn2cnnc2c1C [Example 44, 6-(3-isopropyl-5-(1-(4,4,4-trifluorobutyl)piperidin-4-yl)-1H-indol-2-yl)-7,8-dimethyl-[1,2,4]triazolo[4,3-a]pyridine] | 1.7 | 6.5 | 1750 |
| CC(C)c1c(-c2ccc3nncn3c2)[nH]c2ccc(C3CCNCC3)cc12 [Example 1, 6-(3-isopropyl-5-(piperidin-4-yl)-1H-indol-2-yl)-[1,2,4]triazolo[4,3-a]pyridine] | 22.8 | 140 | 902 |
| Cc1cc(-c2[nH]c3ccc(C4CCN(CC(=O)N(C)C)CC4)cc3c2C(C)C)cn2c(C)nnc12 [Example 34, 2-(4-(2-(3,8-dimethyl-[1,2,4]triazolo[4,3-a]pyridin-6-yl)-3-isopropyl-1H-indol-5-yl)piperidin-1-yl)-N,N-dimethylacetamide] | 9.1 | 4.6 | 1430 |
| Cc1cc(-c2[nH]c3ccc(C4CCN(CC5COC5)CC4)cc3c2C(C)C)cn2cnnc12 [Example 30, 6-(3-isopropyl-5-(1-(oxetan-3-ylmethyl)piperidin-4-yl)-1H-indol-2-yl)-8-methyl-[1,2,4]triazolo[4,3-a]pyridine] | 0.3 | 1.3 | 3110 |
